{"source": "patent US11857669B2", "about": "“Treatment of a disease of the gastrointestinal tract with a JAK inhibitor and devices” (BIORA THERAPEUTICS, INC., priority 2016, dated 2024)", "experiment": "Tacrolimus tissue pharmacokinetics, oral vs intra-cecal ingestible device delivery", "assay_type": "in vivo, Yorkshire-Cross farm swine", "settings": "swine; intra-cecally vs orally administered; 12 hours post-dose; FIG. 76", "protocol": "The primary objective of this study was to compare the tissue, plasma, rectal sample, and GI content pharmacokinetics of tacrolimus through oral versus intra-cecal ingestible device delivery in normal Yorkshire-Cross farm swine.\nNo further randomization procedure was employed.\nAnimals in Group 1 received an ingestible device containing 0.8 mL of vehicle solution (80% alcohol, 20% HCO-60). Animals in Group 2 received orally […] liquid formulation of tacrolimus at 4 mg/0.8 mL per animal (Prograf: 5 mg/mL). Animals in Group 3 received intra-cecally an ingestible device containing tacrolimus at 1 mg in 0.8 mL per ingestible device. Animals in Group 4 received intra-cecally an ingestible device containing tacrolimus at 2 mg in 0.8 mL per ingestible device. Animals in Group 5 received intra-cecally an ingestible device containing tacrolimus at 4 mg in 0.8 mL per ingestible device. […]\nFor tissue necropsy, small intestine fluid and cecal fluid were collected separately from all the animals into two separate square plastic bottles, and stored at −20° C. The length and diameter of the cecum and the colon was measured from one animal in each group and recorded for reference. […] All samples were weighed, and the tissue sample weights were recorded. […] Around 3 grams of the total punched sample were collected into a pre-weighed 15-mL conical tube, and the tissue weight was recorded. […]"}
{"smiles": "C=CC[C@@H]1/C=C(\\C)C[C@H](C)C[C@H](OC)[C@H]2O[C@@](O)(C(=O)C(=O)N3CCCC[C@H]3C(=O)O[C@H](/C(C)=C/[C@@H]3CC[C@@H](O)[C@H](OC)C3)[C@H](C)[C@@H](O)CC1=O)[C@H](C)C[C@@H]2OC", "note": "[tacrolimus]", "values": [{"measurement": "mean concentration of tacrolimus in the cecum tissue and the proximate colon tissue", "result": "higher"}]}
